Consider nine compounds from PMC11768664 (Viruses, 2024).

The subject of data set [1] is W12E 20850 cervical precancer cells. Nature of the data set: Growth inhibition MTT assay on W12 clone 20850 (episomal HPV16). It counts as cell-based. Particulars: for IC50: 120 h, read-out: IC50, growth inhibitory activity on W12 clone 20850. A general note: Tetrazolium assays rely on reduction of a dye to a coloured formazan, in cell work by metabolically active cells.

In data set [2] the test system is W12I 20822 cervical precancer cells. Nature of the data set: Growth inhibition MTT assay on W12 clone 20822 (type 1 integrant). In kind it is cell-based.
The subject of data set [3] is W12I 20862 cervical precancer cells. Nature of the data set: Growth inhibition MTT assay on W12 clone 20862 (type 2 integrant). In kind it is cell-based.
Data set [4] deals with W12I 20861 cervical precancer cells. Nature of the data set: Growth inhibition MTT assay on W12 clone 20861 (type 2 integrant). The settings on record: 120 h, read-out: IC50, growth inhibitory activity on W12 clone 20861. In kind it is cell-based.
For data set [5], the system named is HeLa human cervical cancer cells. Nature of the data set: Growth inhibition (proliferation) MTT assay on HeLa cells. It counts as cell-based. The settings on record: for IC50: Homo sapiens.
The test system of data set [6] is HT29 colon cancer cells. Description: Growth inhibition (proliferation) MTT assay on HT29 cells. In kind it is cell-based. The settings on record: Homo sapiens.
Data set [7] concerns cell cycle genes in HeLa cells. Nature of the data set: Gene expression analysis of HeLa cells treated with curcumin. It counts as cell-based, human. The settings on record: curcumin 32 µM, 8 h.
In data set [8] the target is Na^+/K^+-ATPase. Set-up: method as in earlier work. Particulars: read-out: IC50, inhibition of the activity of the Na+/K+-ATPase, cited from earlier work.
The test system of data set [9] is J2 3T3 mouse embryo fibroblasts (feeder cells). Description: Growth inhibition MTT assay on 3T3 feeder cells. It counts as cell-based. Particulars: NIH3T3, read-out: IC50, growth inhibitory activity on 3T3 feeder cells.
The test system of data set [10] is HeLa human cervical cancer cells. Description: Combination growth inhibition assay and Combination Index on HeLa cells. It counts as cell-based.
Where [11] appears, read: 120 h, read-out: IC50, growth inhibitory activity on W12 clone 20822.
[12] abbreviates: 120 h, read-out: IC50, growth inhibitory activity on W12 clone 20862.
Where [13] appears, read: MTT, 96 h (Figure 1 legend; table footnote prints 120 h), read-out: IC50, growth inhibitory activity on HeLa cells.
[14] abbreviates: HT-29, HT29, MTT, 96 h (Figure 1 legend; table footnote prints 120 h), read-out: IC50, growth inhibitory activity on HT29 cells.

Converted amounts (≈) assume the structure as drawn. “And” between values parts separate entries of the source, which are not always exact repeats. Identical values can stand only once. Like-named read-outs stand apart in the source and are kept apart here.

With `COC1=CC(=O)O[C@@H](CCc2ccc3c(c2)OCO3)C1` [DHM, dihydromethysticin], the IC50 was found to be 24.7 µg/mL (≈ 89.4 µM) in data set [1], 10.2 µg/mL in [2] (setting [11]), 12.8 µg/mL in data set [3] (setting [12]) and 12.4 µg/mL (≈ 44.9 µM) in [4].

For `CC(=O)O[C@@H]1C[C@@]23C[C@@]24CC[C@H](O[C@@H]2OC[C@@H](O)[C@H](O)[C@H]2O)C(C)(C)[C@@H]4CC[C@H]3[C@]2(C)C[C@@H]3O[C@]4(C[C@@H](C)[C@@H]3[C@@]12C)O[C@H](O)[C@@]1(C)O[C@@H]41` [actein], the IC50 in data set [1] is 41.7 µg/mL (≈ 61.6 µM); in data set [2] (setting [11]), 55.7 µg/mL; in [3] (setting [12]) it was 36.3 µg/mL; in data set [4], 37.9 µg/mL (≈ 56 µM).

For the compound `CC(C)c1cc2c(c(O)c1O)[C@@]1(C(=O)O)CCCC(C)(C)[C@@H]1CC2` [carnosic acid], the IC50 in [5] (setting [13]) is 2.03 µg/mL (≈ 6.11 µM); in data set [6] (setting [14]) it was 2.13 µg/mL (≈ 6.41 µM); in data set [1], 13 µg/mL (≈ 39.1 µM); in [2] (setting [11]), 10.7 µg/mL; in data set [3] (setting [12]), 10 µg/mL; in data set [4], 14.1 µg/mL (≈ 42.4 µM).

Take `COc1cc(/C=C/C(=O)CC(=O)/C=C/c2ccc(O)c(OC)c2)ccc1O` [curcumin]: in data set [7], the “Ratio, ATM (NM_000051)” value worked out at 15.43; the “Ratio, CDC6 (NM_001254)” value was 2.68; the “Ratio, CDC20 (NM_016263)” value stood at 19.4; the “Ratio, CDKN1B (NM_004064)” value is listed as 2.77. Moreover, in data set [7], the “Ratio, E2F4 (NM_001950)” value was determined as 2.37; the “Ratio, E2F5 (NM_001951)” value is given as 2.94; the “Ratio, GSK3B (NM_002093)” value is on record as 2.09; the “Ratio, ORC1L (NM_004153)” value amounted to 3.10. In [7], the “Ratio, PLK1 (NM_005030)” value was determined as 2.01; the “Ratio, SKP2 (NM_005983)” value is given as 5.03; the “Ratio, SMAD4 (NM_005359)” value is 3.49; the “Ratio, SMC3 (NM_005445)” value is −3.89. In addition, in data set [7], the “Ratio, STAG1 (NM_005862)” value worked out at 2.37; the “Ratio, STAG2 (NM_001042749)” value is listed as −3.56; the “Ratio, ZBTB17 (NM_003443)” value worked out at 2.48. For the same compound, the “Ratio, ATM (NM_138292)” value in data set [7] (text prints fold) is 36 and 35.94. Besides, the IC50 in data set [8] (as previously described) was 2 µM.

`C[C@H]1O[C@@H](O[C@H]2[C@@H](O)C[C@H](O[C@H]3[C@@H](O)C[C@H](O[C@H]4CC[C@@]5(C)[C@H](CC[C@@H]6[C@@H]5CC[C@]5(C)[C@@H](C7=CC(=O)OC7)CC[C@]65O)C4)O[C@@H]3C)O[C@@H]2C)C[C@H](O)[C@@H]1O` [digitoxin, reference compound]: the IC50 in data set [5] (96 h, read-out: Growth inhibitory Activity (ug/mL), HeLa Cells) is 0.12 µg/mL (≈ 0.157 µM); in [6] (HT-29, 96 h, read-out: Growth inhibitory Activity (ug/mL), HT29 Cells) it was 0.13 µg/mL (≈ 0.17 µM); in data set [8] (comparator, unit inferred), below 0.1 µM.

In the case of `C[C@H]1O[C@@H](O[C@H]2[C@@H](O)C[C@H](O[C@H]3[C@@H](O)C[C@H](O[C@H]4CC[C@@]5(C)[C@H](CC[C@@H]6[C@@H]5C[C@@H](O)[C@]5(C)[C@@H](C7=CC(=O)OC7)CC[C@]65O)C4)O[C@@H]3C)O[C@@H]2C)C[C@H](O)[C@@H]1O` [digoxin, reference compound], the IC50 in [5] (read-out: IC50, growth inhibitory activity on HeLa cells) was 0.12 µg/mL (≈ 0.154 µM); in data set [6] (HT-29, read-out: IC50, growth inhibitory activity on HT29 cells), 0.13 µg/mL (≈ 0.166 µM); in data set [1] it was above 0.025 µg/mL; in [2] (setting [11]) it was 0.008 µg/mL; in data set [3] (setting [12]), 0.0245 µg/mL; in data set [4], 0.0037 µg/mL (≈ 0.00474 µM). Further, the IC50 in data set [9] is above 10 µg/mL.

Take `C(=Cc1ccccc1)c1ccccc1` [stilbene]: the “IC50, growth inhibitory activity on HeLa cells” value in data set [5] (MTT, 96 h (Figure 1 legend; table footnote prints 120 h)) is recorded as “greater than 100 µg/mL”.

In the case of `Cc1coc2c1C(=O)C(=O)c1c-2ccc2c1CCCC2(C)C` [tanshinone IIA], the IC50 in data set [5] (Figure 1C, 96 h, MTT, read-out: Growth inhibitory Activity (ug/mL), HeLa Cells) is 1.4 µg/mL (≈ 4.76 µM); in [5] (setting [13]) it was 1.33 µg/mL (≈ 4.52 µM); in [6] (HT-29, Figure 1C, 96 h, MTT, read-out: Growth inhibitory Activity (ug/mL), HT29 Cells), 1.3 µg/mL (≈ 4.42 µM); in [6] (setting [14]) it was 1.27 µg/mL (≈ 4.31 µM); in [1] (episomal, MTT), 2.3 µg/mL (≈ 7.81 µM); in data set [2] (type 1 integrant, 120 h, MTT, read-out: IC50, growth inhibitory activity on W12 clone 20822), 2 µg/mL. Besides, the IC50 came out at 2.1 µM in [2] (value quoted with the RT-PCR results, read-out: IC50, relative growth inhibitory effect on 20822); 3.1 µg/mL in data set [3] (type 2 integrant, 120 h, MTT, read-out: IC50, growth inhibitory activity on W12 clone 20862); 2.8 µM in [3] (value quoted with the RT-PCR results, read-out: IC50, relative growth inhibitory effect on 20862); 1.4 µg/mL (≈ 4.76 µM) in data set [4]. The “low concentration with significant activity on 20850 (episomal) cells” value in data set [1] (p = 0.0058) came out at 2.5 µM. Also, the “percentage of viable cells” value in data set [10] (tanshinone IIA 0.2 μM alone, 90% curcuminoids experiment) is on record as 134%. In addition, the percent viable cells in data set [10] (tanshinone IIA 0.2 µΜ alone, 95% curcuminoids experiment) turned out to be 91.96%.

As to lambda carrageenan, in [1] (after sonication, inverse pattern in a repeat experiment), the “activity on 20850 cells, in words” value was “highly active”.
